Test results taken from PubChem BioAssay AID1963965 (Molecular Pharmacology Branch, DTP, NCI, 2024).
pIC50: −log10 of the molar value.

System: 996289-038-R-J1-PDC spheroid viability
Test: Anticancer human tumor 996289-038-R-J1-PDC patient-derived colon adenocarcinoma cell line growth inhibition [PI3K]
Conditions: spheroids with HUVEC and MSC; for pIC50: curve of first compound; for viability, T/C: stronger effect = lower value
Method in brief: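 Viability of mixed-cell spheroids was determined after exposure to pairwise combinations, one partner being inavolisib, alpelisib, duvelisib or copanlisib. Highest tested concentration matched clinical Cmax where known and 10 microM where not, descending in half-log steps.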

[1] = second compound 0.0316 µM, first compound 0.0316 µM
[2] = second compound 0.0316 µM, first compound 0.1 µM
[3] = second compound 0.1 µM, first compound 0.0316 µM
[4] = second compound 0.1 µM, first compound 0.1 µM
[5] = second compound 0.316 µM, first compound 0.0316 µM
[6] = second compound 0.316 µM, first compound 0.1 µM
[7] = second compound 1 µM, first compound 0.0316 µM
[8] = second compound 1 µM, first compound 0.1 µM
[9] = second compound 3.16 µM, first compound 0.0316 µM
[10] = second compound 3.16 µM, first compound 0.1 µM
[11] = second compound 10 µM, first compound 0.0316 µM
[12] = second compound 10 µM, first compound 0.1 µM
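Also: spheroids exposed to compounds for seven days before viability read.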
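For viability, T/C in this document: luminescence used as a proxy for viable cell amount; percent viability relative to DMSO vehicle control as 100%.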

Q: What does the source list for `CC(=O)c1c(C)c2cnc(Nc3ccc(N4CCNCC4)cn3)nc2n(C2CCCC2)c1=O` + CC(Nc1ncnc2nc[nH]c12)c1cc2cccc(Cl)c2c(=O)n1-c1ccccc1?
A: pIC50 (second compound 0.0316 µM): < 7.00; pIC50 (second compound 0.1 µM): < 7.00; pIC50 (second compound 0.316 µM): < 7.00; pIC50 (second compound 1 µM): < 7.00; pIC50 (second compound 3.16 µM): < 7.00; pIC50 (second compound 10 µM): < 7.00; viability, T/C (second compound 0.0316 µM, first compound 0.000316 µM): 104%; viability, T/C (second compound 0.0316 µM, first compound 0.001 µM): 96.3%; viability, T/C (second compound 0.0316 µM, first compound 0.00316 µM): 93.2%; viability, T/C (second compound 0.0316 µM, first compound 0.01 µM): 92%; viability, T/C [1]: 99.2%; viability, T/C [2]: 84.2%; viability, T/C (second compound 0.1 µM, first compound 0.000316 µM): 96.4%; viability, T/C (second compound 0.1 µM, first compound 0.001 µM): 97.5%; viability, T/C (second compound 0.1 µM, first compound 0.00316 µM): 101%; viability, T/C (second compound 0.1 µM, first compound 0.01 µM): 102%; viability, T/C [3]: 107%; viability, T/C [4]: 90.1%; viability, T/C (second compound 0.316 µM, first compound 0.000316 µM): 93.8%; viability, T/C (second compound 0.316 µM, first compound 0.001 µM): 105%; viability, T/C (second compound 0.316 µM, first compound 0.00316 µM): 102%; viability, T/C (second compound 0.316 µM, first compound 0.01 µM): 97.7%; viability, T/C [5]: 108%; viability, T/C [6]: 86.7%; viability, T/C (second compound 1 µM, first compound 0.000316 µM): 106%; viability, T/C (second compound 1 µM, first compound 0.001 µM): 102%; viability, T/C (second compound 1 µM, first compound 0.00316 µM): 90.3%; viability, T/C (second compound 1 µM, first compound 0.01 µM): 95.2%; viability, T/C [7]: 92.4%; viability, T/C [8]: 89.8%; viability, T/C (second compound 3.16 µM, first compound 0.000316 µM): 102%; viability, T/C (second compound 3.16 µM, first compound 0.001 µM): 91.3%; viability, T/C (second compound 3.16 µM, first compound 0.00316 µM): 88.4%; viability, T/C (second compound 3.16 µM, first compound 0.01 µM): 95.9%; viability, T/C [9]: 103%; viability, T/C [10]: 84.5%; viability, T/C (second compound 10 µM, first compound 0.000316 µM): 87.5%; viability, T/C (second compound 10 µM, first compound 0.001 µM): 84.4%; viability, T/C (second compound 10 µM, first compound 0.00316 µM): 88.2%; viability, T/C (second compound 10 µM, first compound 0.01 µM): 86.7%; viability, T/C [11]: 104%; viability, T/C [12]: 72.7%

Q: `CNC(=O)c1ccc(N2C(=S)N(c3ccc(C#N)c(C(F)(F)F)c3)C(=O)C2(C)C)cc1F` + CC(Nc1ncnc2nc[nH]c12)c1cc2cccc(Cl)c2c(=O)n1-c1ccccc1 was tested. Which pIC50 (second compound 0.0316 µM) did it give?
A: < 5.00

Q: And the pIC50 (second compound 0.1 µM)?
A: < 5.00

Q: What about the pIC50 (second compound 0.316 µM) of the same compound?
A: < 5.00

Q: What about the pIC50 (second compound 1 µM) of the same compound?
A: < 5.00

Q: And the pIC50 (second compound 3.16 µM)?
A: < 5.00

Q: What about the pIC50 (second compound 10 µM) of the same compound?
A: < 5.00

Q: And the viability, T/C [1]?
A: 96.5%

Q: What about the viability, T/C [2] of the same compound?
A: 104%

Q: What about the viability, T/C (second compound 0.0316 µM, first compound 0.316 µM) of the same compound?
A: 110%

Q: And the viability, T/C (second compound 0.0316 µM, first compound 1 µM)?
A: 110%

Q: What about the viability, T/C (second compound 0.0316 µM, first compound 3.16 µM) of the same compound?
A: 118%

Q: And the viability, T/C (second compound 0.0316 µM, first compound 10 µM)?
A: 119%

Q: And the viability, T/C [3]?
A: 130%

Q: What about the viability, T/C [4] of the same compound?
A: 98.4%

Q: What about the viability, T/C (second compound 0.1 µM, first compound 0.316 µM) of the same compound?
A: 93.6%

Q: What about the viability, T/C (second compound 0.1 µM, first compound 1 µM) of the same compound?
A: 88.6%

Q: And the viability, T/C (second compound 0.1 µM, first compound 3.16 µM)?
A: 105%

Q: What about the viability, T/C (second compound 0.1 µM, first compound 10 µM) of the same compound?
A: 108%

Q: What about the viability, T/C [5] of the same compound?
A: 107%

Q: And the viability, T/C [6]?
A: 106%

Q: What about the viability, T/C (second compound 0.316 µM, first compound 0.316 µM) of the same compound?
A: 102%

Q: And the viability, T/C (second compound 0.316 µM, first compound 1 µM)?
A: 110%

Q: And the viability, T/C (second compound 0.316 µM, first compound 3.16 µM)?
A: 119%

Q: What about the viability, T/C (second compound 0.316 µM, first compound 10 µM) of the same compound?
A: 103%

Q: What about the viability, T/C [7] of the same compound?
A: 94.7%

Q: What about the viability, T/C [8] of the same compound?
A: 112%

Q: And the viability, T/C (second compound 1 µM, first compound 0.316 µM)?
A: 98.2%

Q: What about the viability, T/C (second compound 1 µM, first compound 1 µM) of the same compound?
A: 102%

Q: What about the viability, T/C (second compound 1 µM, first compound 3.16 µM) of the same compound?
A: 114%

Q: And the viability, T/C (second compound 1 µM, first compound 10 µM)?
A: 96.9%

Q: What about the viability, T/C [9] of the same compound?
A: 96.9%

Q: What about the viability, T/C [10] of the same compound?
A: 102%

Q: And the viability, T/C (second compound 3.16 µM, first compound 0.316 µM)?
A: 89.6%

Q: And the viability, T/C (second compound 3.16 µM, first compound 1 µM)?
A: 109%

Q: And the viability, T/C (second compound 3.16 µM, first compound 3.16 µM)?
A: 102%

Q: And the viability, T/C (second compound 3.16 µM, first compound 10 µM)?
A: 110%

Q: And the viability, T/C [11]?
A: 98.9%

Q: And the viability, T/C [12]?
A: 101%

Q: What about the viability, T/C (second compound 10 µM, first compound 0.316 µM) of the same compound?
A: 83.1%

Q: And the viability, T/C (second compound 10 µM, first compound 1 µM)?
A: 104%

Q: And the viability, T/C (second compound 10 µM, first compound 3.16 µM)?
A: 98.8%

Q: What about the viability, T/C (second compound 10 µM, first compound 10 µM) of the same compound?
A: 97.2%
